Data reported in publication PMC7946963, “Phosphorylation regulates the binding of autophagy receptors to FIP200 Claw domain for selective autophagy initiation” (Nature Communications, 2021).
One block for each compound: values may come before it. Peptide text beside a SMILES is read from it.

How the values were obtained:
[1] = system: all six mammalian ATG8 orthologues; assay: Analytical gel filtration chromatography, statement over all ATG8 orthologues; assay type: binding; settings: qualitative analytical gel filtration chromatography; Supplementary Figs. 20 and 21
Description: (§1) Purified proteins were loaded on to a […] 10/300 GL column (GE Healthcare) equilibrated with a buffer containing 20 mM Tris-HCl (pH 7.9), 100 mM NaCl and 1 mM DTT. Analytical gel filtration chromatography was carried out on an AKTA FPLC system (GE Healthcare). The fitting results were further output to the Origin 8.5 software and aligned with each other.

[2] = system: FIP200 Claw (FIP200(1450–1594)); assay: Analytical gel filtration chromatography with FIP200 Claw; assay type: binding, human; settings: for interaction of CCPG1 FIR2 variant with FIP200 Claw (in words): analytical gel filtration chromatography and fluorescence spectroscopy-based analyses, Supplementary Fig. 10; for interaction of Optineurin fragment with FIP200 (in words): analytical gel filtration chromatography with FIP200(1450–1594), Fig. 3b, c, Supplementary Fig. 15; for effect of point mutation in Optineurin(169–185) S177E on the interaction with FIP200 (in words): analytical gel filtration chromatography, Supplementary Fig. 16
Description: as §1

FIP200 Claw = settings: cited from earlier work
Text: Previous studies have well established a critical role of the FIP200 subunit in the ULK complex for associating with other autophagic factors, especially some autophagy receptors such as CCPG1, NDP52, and P62[30],[49]–[51].

[3] = target: T1, FIP200 Claw domain (residues 1490–1594) (Homo sapiens, UniProt Q8TDY2); assay: Fluorescence polarization (FP) binding assay, FITC-peptide titrated with FIP200 Claw; settings: N-terminally FITC-labeled peptide (~0.25 μM) titrated with FIP200 Claw (residues 1490–1594), 20 mM Tris pH 7.9, 100 mM NaCl, 1 mM DTT, 25 °C, one-site binding model, performed in triplicate, read-out: Kd (fitted dissociation constant with standard error)
T1 construct: N-terminal Trx-tag/His6-tag or His6-tag/SUMO-tag (vector for this fragment not specified) (N, cleaved yes); made in house; host or cells: E. coli BL21 (DE3)
T1 sequence (Q8TDY2 1490-1594): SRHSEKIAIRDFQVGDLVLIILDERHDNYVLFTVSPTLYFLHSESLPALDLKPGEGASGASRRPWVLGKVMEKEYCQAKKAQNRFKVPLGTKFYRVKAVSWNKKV
Description: Fluorescence anisotropy binding assays were performed on the SpectraMax i3x Multi-Mode Detection Platform from Molecular Devices, using a 485 nm excitation filter and a 535 nm emission filter. Peptides were labeled with fluorescein isothiocyanate isomer I (Sigma-Aldrich) at their N-terminals. […] The Kd values were obtained by fitting the titration curves with the classical one-site binding model using GraphPad Prism 6 software.

[4] = system: different ATG8 proteins (LC3A, LC3B, LC3C, GABARAP, GABARAPL1, GABARAPL2); assay: ITC-based measurements of ATG16L1 FIR with ATG8 proteins; settings: one-site binding model, peer review file figure
[5] = system: FIP200 Claw K1569A mutant; assay: Analytical gel filtration chromatography with FIP200 K1569A mutant; assay type: binding, human; settings: Supplementary Fig. 16
Description: as §1

[6] = system: FIP200 Claw Y1564S mutant; assay: Analytical gel filtration chromatography with FIP200 Y1564S mutant; assay type: binding, human; settings: Supplementary Fig. 16
Description: as §1

[7] = system: FIP200 Claw R1573E mutant; assay: Analytical gel filtration chromatography with FIP200 R1573E mutant; assay type: binding, human; settings: Supplementary Fig. 16
Description: as §1

[8] = system: FIP200 Claw F1574Q mutant; assay: Analytical gel filtration chromatography with FIP200 F1574Q mutant; assay type: binding, human; settings: Supplementary Fig. 16
Description: as §1

Compound: CCPG1 FIR2 S104E: recombinant phosphomimetic S104E mutant of CCPG1 FIR2 (residues 99–113) (TASDDEDIVTLEPPK)
interaction with all six mammalian ATG8 orthologues (in words) [1]: can directly interact | interaction of CCPG1 FIR2 variant with FIP200 Claw (in words) [2]: good abilities to interact

Compound: D105A: D105A point mutant of CCPG1 FIR2 (TASDDSAIVTLEPPK)
interaction of CCPG1 FIR2 variant with FIP200 Claw (in words) [2]: significantly decrease or essentially disrupt

Compound: T108A: T108A point mutant of CCPG1 FIR2 (TASDDSDIVALEPPK)
interaction of CCPG1 FIR2 variant with FIP200 Claw (in words) [2]: significantly decrease or essentially disrupt

Compound: phosphomimetic quadruple mutations (S349D, S365D, S366D, and S370D) of P62: P62 with phosphomimetic S349D, S365D, S366D, S370D mutations, from ref 49
enhancement of the binding affinity of P62 for FIP200 Claw by phosphomimetic mutations (FIP200 Claw): roughly by twofold

Compound: Optineurin(33–168): recombinant human Optineurin fragment, residues 33–168
interaction of Optineurin fragment with FIP200 (in words) [2]: no obvious interactions

Compound: p-Optineurin(33–209): Optineurin(33–209) fragment phosphorylated in vitro by TBK1
interaction of Optineurin fragment with FIP200 (in words) [2]: much stronger binding ability

Compound: D176R: D176R mutation of the phosphomimetic Optineurin(169–185) S177E mutant (NSSGSSEREFVEIRMAE)
effect of point mutation in Optineurin(169–185) S177E on the interaction with FIP200 (in words) [2]: significantly attenuate or completely abolish

Compound: I106S: I106S point mutant of CCPG1 FIR2 (TASDDSDSVTLEPPK)
interaction of CCPG1 FIR2 variant with FIP200 Claw (in words) [2]: significantly decrease or essentially disrupt

Kd [3]: 11.5 ± 1.74 µM
Compound: CC[C@H](C)[C@H](NC(=O)[C@H](CCC(=O)O)NC(=O)[C@@H](NC(=O)[C@H](Cc1ccccc1)NC(=O)[C@H](COP(=O)(O)O)NC(=O)[C@H](CC(=O)O)NC(=O)[C@H](CCC(=O)O)NC(=O)[C@H](CO)NC(=O)[C@@H](N)CO)C(C)C)C(=O)N[C@@H](CCCNC(=N)N)C(=O)N[C@@H](CCSC)C(=O)N[C@@H](C)C(=O)N[C@@H](CCC(=O)O)C(=O)O [p-Optineurin LIR] (HELM PEPTIDE1{S.S.E.D.[O=C([C@H](COP(=O)(O)O)N[*:1])[*:2]].F.V.E.I.R.M.A.E}$$$$V2.0)

Compound: Optineurin(186–209): recombinant human Optineurin fragment, residues 186–209
interaction of Optineurin fragment with FIP200 (in words) [2]: no obvious interactions

Compound: ATG16L1 FIR: ATG16L1 FIR (residues 235-247), FIP200-interacting region of ATG16L1 (EQDDDIEVIVDET; UniProt Q676U5 235-247, looked up, fragment)
binding to different ATG8 proteins (in words) [4]: can directly bind

Compound: F178Q: F178Q mutation of the phosphomimetic Optineurin(169–185) S177E mutant (NSSGSSEDEQVEIRMAE)
effect of point mutation in Optineurin(169–185) S177E on the interaction with FIP200 (in words) [2]: significantly attenuate or completely abolish

Compound: L109A: L109A point mutant of CCPG1 FIR2 (TASDDSDIVTAEPPK)
interaction of CCPG1 FIR2 variant with FIP200 Claw (in words) [2]: significantly decrease or essentially disrupt

Compound: Optineurin(169–185) S177E: recombinant phosphomimetic S177E mutant of Optineurin(169–185) that solely includes the LIR motif (NSSGSSEDEFVEIRMAE; UniProt Q96CV9 169-185, looked up, variant S177E)
interaction with FIP200 K1569A mutant compared with wild type (in words) [5]: significantly attenuate or completely abolish | interaction with FIP200 Y1564S mutant compared with wild type (in words) [6]: significantly attenuate or completely abolish | interaction with FIP200 R1573E mutant compared with wild type (in words) [7]: significantly attenuate or completely abolish | interaction with FIP200 F1574Q mutant compared with wild type (in words) [8]: significantly attenuate or completely abolish | interaction of Optineurin fragment with FIP200 (in words) [2]: can specifically interact
